Here are results for two compounds from publication PMC9856155, “Protein Conformational Dynamics Underlie Selective Recognition of Thermophilic over Mesophilic Enzyme I by a Substrate Analogue” (Biomolecules, 2023).

Read-outs that look alike come from different tables or passages of the source.

The target in the assay is T1, Enzyme I C-terminal domain (tEIC) (Caldanaerobacter subterraneus, UniProt Q8R7R4).
T1 construct: gene PtsA; EIC, C-terminal domain (residues 261–575)
Nature of the assay: 1H-15N TROSY NMR chemical shift perturbation titration. In kind it is binding. An excerpt:
1H-15N TROSY NMR chemical shift perturbation titration on Enzyme I C-terminal domain (tEIC) | both cPEP and SEP induce significant CSPs on the spectra of tEIC localized in the vicinity of the PEP binding site | SEP is particularly interesting as it binds to the thermophilic enzyme with a KD similar to the physiological substrate

T1 sequence (Q8R7R4 250-573): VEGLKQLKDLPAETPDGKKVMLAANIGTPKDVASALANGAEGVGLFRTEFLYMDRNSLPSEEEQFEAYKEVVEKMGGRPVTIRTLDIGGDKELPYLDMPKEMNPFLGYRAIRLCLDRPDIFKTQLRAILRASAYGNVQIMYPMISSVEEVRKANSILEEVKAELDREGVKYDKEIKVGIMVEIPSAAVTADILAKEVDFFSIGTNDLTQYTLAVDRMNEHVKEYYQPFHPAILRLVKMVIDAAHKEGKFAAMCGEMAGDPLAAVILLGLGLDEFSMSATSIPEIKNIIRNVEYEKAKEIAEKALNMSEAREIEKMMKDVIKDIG

A word on the Kd: it is the constant that tells how readily two partners part at equilibrium. In the case of `C=C(CP(=O)(O)O)C(=O)O` [cPEP, allylicphosphonate], the Kd turned out to be 2800 µM. Regarding `C=C(OS(=O)(=O)O)C(=O)O` [SEP, sulfoenolpyruvate], the Kd (read-out: Kd) was 600 µM.
